Test results: US11236120B2, “Azithromycin derivatives with epithelial barrier enhancement properties” (EpiEndo Pharmaceuticals ehf, priority 2015, dated 2022)
Values after ≈ are worked out from the molar mass of the structure shown.

Legend:
[1] = tested on: Streptococcus pneumoniae (ATCC49619); experiment: Assay 1: antimicrobial broth dilution on microtiter plates, Streptococcus pneumoniae; format: cell-based; conditions: Str
Protocol: (§1) The antimicrobial activity of each Example compound was investigated. The Minimal Inhibitory Concentration (MIC—the minimal dose required to inhibit bacterial growth) and the Minimal Bactericidal Concentration (MBC—the minimal dose required to kill bacteria) were measured for each compound for Streptococcus pneumoniae (ATCC49619), Staphylococcus aureus (ATCC29213), Bacillus megaterium (BM-11) and Escherichia coli (D-21) using an antimicrobial broth dilution method on microtiter plates. The Minimal Inhibitory Concentration (MIC) was also measured for each example compound and azithromycin with Mycobacterium avium complex (MAC). […]
(§2) The Minimal Inhibitory Concentration (MIC—the minimal dose required to inhibit bacterial growth) and the Minimal Bactericidal Concentration (MBC—the minimal dose required to kill bacteria) were measured for each compound for Streptococcus pneumoniae (ATCC49619), Staphylococcus aureus (ATCC29213), Bacillus megaterium (BM-11) and Escherichia coli (D-21) using an antimicrobial broth dilution method on 96 well microtiter plates. […]
(§3) After addition of the bacterial solution, the plates were incubated at 35° C. for 18 h. The bacterial growth of each well was then recorded and then the Minimal Inhibitory Concentration (MIC) and Minimal Bactericidal Concentration ([…]) were determined.

[2] = tested on: Bacillus megaterium (BM-11); experiment: Assay 1: antimicrobial broth dilution on microtiter plates, Bacillus megaterium; format: cell-based; conditions: Priestia megaterium
Protocol: as §1, §2, §3

[3] = tested on: Escherichia coli (D-21); experiment: Assay 1: antimicrobial broth dilution on microtiter plates, Escherichia coli; format: cell-based; conditions: E. coli (D-21)
Protocol: The antimicrobial activity of each Example compound was investigated. The Minimal Inhibitory Concentration (MIC—the minimal dose required to inhibit bacterial growth) and the Minimal Bactericidal Concentration (MBC—the minimal dose required to kill bacteria) were measured for each compound for Streptococcus pneumoniae (ATCC49619), Staphylococcus aureus (ATCC29213), Bacillus megaterium (BM-11) and Escherichia coli (D-21) using an antimicrobial broth dilution method on microtiter plates. The Minimal Inhibitory Concentration (MIC) was also measured for each example compound and azithromycin with Mycobacterium avium complex (MAC). Mycobacterium avium complex (MAC) is a term that covers both M. avium and M. intracellulare.
The antibacterial activities of example compounds 1 to 31 and azithromycin were investigated. The Minimal Inhibitory Concentration (MIC—the minimal dose required to inhibit bacterial growth) and the Minimal Bactericidal Concentration (MBC—the minimal dose required to kill bacteria) were measured for each compound for Streptococcus pneumoniae (ATCC49619), Staphylococcus aureus (ATCC29213), Bacillus megaterium (BM-11) and Escherichia coli (D-21) using an antimicrobial broth dilution method on 96 well microtiter plates.
A 256 μg/ml stock solution of each compound was prepared in Mueller-Hinton Broth and then further diluted by a 2-fold serial dilution. […]

[4] = Solubility in 10 mM phosphate buffer (pH 7.4); format: physicochemical; conditions: pH 7.4, aqueous buffer, kinetic from dmso stock, 60 minutes at room temperature, filtered, read-out: MTS Solubility in Buffer (pH 7.4)
Protocol: Solubility in 10 mM Phosphate Buffer (pH 7.4)
The solubility sample testing of the compounds was performed by in phosphate buffer at pH 7.4 and using HPLC-MS detection. A stock solution of […] in DMSO was prepared for each compound. For the solubility test sample, 100 μL of the stock solution was diluted with 3.9 mL of a 10 mM phosphate buffer at […] to a final concentration of […]. The buffer solution was left to stand for 60 minutes at room temperature and then filtered. The filtrate was analyzed against two calibration points of the same analyte prepared at […] using HPLC-MS. These calibration points were prepared from the same stock solution as the solubility sample by diluting it with DMSO:H2O (1:1) 1:40 and then again 1:10. The chromatographic signal area of the analyte in the solubility sample was then compared to the chromatographic signal area of the two calibration samples.
(§4) The chromatographic separation was performed on a Waters HPLC-MS system using a 50×2.1 mm×Bridge C18 column and a gradient elution of Water with 0.1% formic acid and acetonitrile with 0.1% formic acid. The analytes were analyzed in positive electro-spray mode using the (M+H)^+ in single ion recording.

[5] = Stability in human plasma; format: in vitro ADME; conditions: room temperature
Protocol: Stability in Mouse and Human Plasma
The stability of the compounds in mouse and human plasma was performed using protein precipitation as sample clean-up and HPLC-MS detection. The plasma stability studies of the compounds was performed at room temperature for up to 4 hours. A stock solution of […] in DMSO was prepared for each compound. For the plasma stability samples, 100 μL of the stock solution was diluted with 3.9 mL of either mouse or human plasma to a final concentration of […]. The plasma was left to equilibrate for 10 minutes at room temperature before the first analysis. For each analyzed time point ([…]) a 100 μL aliquot of the plasma was removed and protein precipitation (PPT) was performed on the aliquot by adding 900 μL of (ACN:DMSO) 95:5. The precipitated sample was shaken for 60 seconds and then centrifuged. The supernatant was transferred to an HPLC vial and analyzed using HPLC-MS. The chromatographic signal area of the samples at the different time points were then compared against each other, by setting the initial analysis at t=0 min as 100% and then calculating the %-value for each subsequent time point.
as §4

[6] = tested on: epithelial cells in vitro ALI culture; conditions: cited from earlier work

Question: For `CC[C@H]1OC(=O)[C@H](C)[C@@H](O[C@H]2C[C@@](C)(OC)[C@@H](O)[C@H](C)O2)[C@H](C)[C@@H](O[C@@H]2O[C@H](C)C[C@H](N(C)C)[C@H]2O)[C@](C)(O)C[C@@H](C)CN(C)[C@H](C)[C@@H](O)[C@]1(C)O` [Azithromycin, (2R,3S,4R,5R,8R,10R,11R,12S,13S,14R)-11-[(2S,3R,4S,6R)-4-(dimethylamino)-3-hydroxy-6-methyl-tetrahydropyran-2-yl]oxy-2-ethyl-3,4,10-trihydroxy-13-[(2R,4R,5S,6S)-5-hydroxy-4-methoxy-4,6-dimethyl-tetrahydropyran-2-yl]oxy-3,5,6,8,10,12,14-heptamethyl-1-oxa-6-azacyclopentadecan-15-one], which MBC [1] is on record?
Answer: The MBC was 0.06 µg/mL (≈ 0.0801 µM).

Question: And the MIC [1]?
Answer: The MIC was 0.06 µg/mL (≈ 0.0801 µM).

Question: And the MBC [2]?
Answer: The MBC was 2 µg/mL (≈ 2.67 µM).

Question: What about the MIC [2] of the same compound?
Answer: Its MIC is 1 µg/mL (≈ 1.34 µM).

Question: What about the MBC [3] of the same compound?
Answer: The MBC was 32 µg/mL (≈ 42.7 µM).

Question: And the MIC [3]?
Answer: Its MIC is 4 µg/mL (≈ 5.34 µM).

Question: And the solubility at 60 min [4]?
Answer: The solubility at 60 min was 0.26 µM (≈ 0.195 µg/mL).

Question: What about the “Degradation in Human Plasma at RT” value [5] of the same compound?
Answer: Its value is 6 % per hour.

Question: And the “effect on transepithelial resistance (TER) and cellular processing of tight junctions” value [6]?
Answer: The value was “increasing transepithelial resistance”.
